Data on 51 compounds can be found in US4943574A, “(1H-azol-1-ylmethyl) substituted benzotriazole derivatives and pharmaceutical compositions containing them” (Janssen Pharmaceutica N.V., priority 1989, dated 1990).

Counter-ions that a name gives are not always drawn. Like-named read-outs stand apart in the source and are kept apart here.

Experiment [1] has as its target T1, aromatase (Homo sapiens, UniProt P11511).
T1 sequence (P11511 1-503): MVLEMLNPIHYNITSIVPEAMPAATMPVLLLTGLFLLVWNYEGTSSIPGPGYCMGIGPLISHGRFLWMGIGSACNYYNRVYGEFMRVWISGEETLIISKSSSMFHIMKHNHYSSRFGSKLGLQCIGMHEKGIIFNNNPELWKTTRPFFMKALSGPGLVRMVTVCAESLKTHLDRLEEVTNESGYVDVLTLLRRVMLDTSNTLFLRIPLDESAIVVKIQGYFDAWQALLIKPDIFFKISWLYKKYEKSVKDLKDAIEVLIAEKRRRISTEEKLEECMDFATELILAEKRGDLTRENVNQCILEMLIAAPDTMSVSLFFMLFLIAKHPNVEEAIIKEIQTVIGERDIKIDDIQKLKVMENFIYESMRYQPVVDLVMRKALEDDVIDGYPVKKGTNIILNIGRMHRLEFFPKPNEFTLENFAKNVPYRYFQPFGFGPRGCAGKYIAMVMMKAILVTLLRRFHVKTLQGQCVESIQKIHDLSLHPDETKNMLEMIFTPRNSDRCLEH
The experiment can be described thus: biochemical. Particulars: read-out: IC50-values (concentration of the compound required to obtain 50% inhibition of the estrogen synthesis). As for the experimental part: Human placental microsomes were diluted in potassium phosphate buffer (0.1M, pH 7.4) to give about 50% conversion of androgens to estrogens (protein content: about 0.5 mg). Four ml human placental microsomes were incubated in a final volume of 5 ml with 0.2 μCi1,2[3H]-androstenedione, 2 μg androstendione and 5 μl of test compound and/or dimethyl sulfoxide (DMSO). […] The reaction was initiated by the addition of androstenedione and proceeded for 30 min at 37° C. During the incubation period, the mixtures were gassed with air. In this assay, aromatization of androstenedione results in the production of [3H]-H2 O which is isolated by extracting the samples with chloroform to remove the free steroid.

Experiment [2] deals with aromatase. Briefly: In vivo-inhibition of the aromatase activity (plasma estradiol in PMSG-injected immature female Wistar rats). The arrangement: species or system rat (immature female Wistar rats). As for the experimental part:
Immature female Wistar rats weighing 120 g were injected subcutaneously with 200 I.U. of pregnant mare's serum gonadotropin (PMSG). […] Control animals received 20% polyethyleneglycol only. Two hours following drug or placebo administration the rats were killed by decapitation and trunk blood was collected on heparine. Plasma estradiol concentrations were measured by standard radio-immunological procedures.

The mark [3] stands for this setting: human placental microsomes, 30 min at 37° C., pH 7.4, 1,2[3H]androstenedione.
Where [4] appears, read: 1 mg/kg oral gavage, two hours following administration, PMSG-injected immature female Wistar rats.

Consider `CCCCCOn1nnc2ccc(Cn3ccnc3)cc21` [Compound 201], for which the IC50 at aromatase [1] (setting [3]) amounted to 6.7 nM. The “% recovery estradiol (plasma estradiol relative to the controls)” value in the experiment on aromatase [2] (setting [4]) is reported as 19%. The corresponding values for `Cn1nnc2ccc(C(c3ccc(C(F)(F)F)cc3)n3ccnc3)cc21` (centres unmarked) [Compound 55] are 18.8 nM and 3%. Regarding `BrCCOn1nnc2ccc(Cn3ccnc3)cc21` [Compound 204], the IC50 on aromatase [1] (setting [3]) was 9.2 nM. In the experiment with aromatase [2] (setting [4]), the “% recovery estradiol (plasma estradiol relative to the controls)” value is given as 19%. With `OCCCn1nnc2ccc(Cn3ccnc3)cc21` [Compound 109], at aromatase [1] (setting [3]), the IC50 was found to be 26.2 nM.

For `Cn1nnc2ccc(C(c3ccccc3)n3ccnc3)cc21` (centres unmarked) [Compound 7], the IC50 at aromatase [1] (setting [3]) worked out at 25.7 nM. Further, the “% recovery estradiol (plasma estradiol relative to the controls)” value in the experiment with aromatase [2] (setting [4]) worked out at 7%. Take `CCC(C)On1nnc2ccc(Cn3ccnc3)cc21` (centres unmarked) [Compound 197]: the IC50 at aromatase [1] (setting [3]) was found to be 11 nM. For `CCCn1nnc2ccc(Cn3ccnc3)cc21` [Compound 89], on aromatase [1] (setting [3]), the IC50 was 15 nM. Also, the “% recovery estradiol (plasma estradiol relative to the controls)” value in the experiment on aromatase [2] (setting [4]) is given as 5%. `CCOC(=O)COn1nnc2ccc(Cn3ccnc3)cc21` [Compound 198]: on aromatase [1] (setting [3]), the IC50 stood at 18 nM. Consider `Clc1ccc(Cn2nnc3ccc(Cn4ccnc4)cc32)cc1` [Compound 91], for which the IC50 on aromatase [1] (setting [3]) was found to be 8.8 nM. With `CC(C)n1nnc2ccc(Cn3ccnc3)cc21` [Compound 87], the IC50 on aromatase [1] (setting [3]) was found to be 26.9 nM. The “% recovery estradiol (plasma estradiol relative to the controls)” value in the experiment with aromatase [2] (setting [4]) stood at 5%. On to `CCOn1nnc2ccc(Cn3ccnc3)cc21.Cl` [Compound 225, 1-ethoxy-6-(1H-imidazol-1-ylmethyl)-1H-benzotriazole monohydrochloride], for which, at aromatase [1] (setting [3]), the IC50 stood at 10 nM. Besides, the “% recovery estradiol (plasma estradiol relative to the controls)” value in the experiment on aromatase [2] (setting [4]) stood at 19%. Turning to `c1ccc(COn2nnc3ccc(C(c4ccccc4)n4ccnc4)cc32)cc1` (centres unmarked) [Compound 188], the IC50 on aromatase [1] (setting [3]) was 18.2 nM. With `CCCCn1nnc2ccc(Cn3ccnc3)cc21` [Compound 147, 1-butyl-6-(1H-imidazol-1-ylmethyl)-1H-benzotriazole], the IC50 at aromatase [1] (setting [3]) was determined as 7.6 nM. Further, in the experiment on aromatase [2] (setting [4]), the “% recovery estradiol (plasma estradiol relative to the controls)” value stood at 21%. Consider `C#CCOn1nnc2ccc(Cn3ccnc3)cc21` [Compound 179], for which the IC50 at aromatase [1] (setting [3]) came out at 23.2 nM. Take `CCCC(c1ccc2nnn(C)c2c1)n1ccnc1` (centres unmarked) [Compound 31]: the IC50 on aromatase [1] (setting [3]) is 34.2 nM. Moreover, the “% recovery estradiol (plasma estradiol relative to the controls)” value in the experiment on aromatase [2] (setting [4]) is listed as 8%. Regarding `CCCCn1nnc2ccc(C(c3cccc(Cl)c3)n3ccnc3)cc21` (centres unmarked) [Compound 23], at aromatase [1] (setting [3]), the IC50 was determined as 7.5 nM. Consider `c1cn(Cc2ccc3nnn(C4CC5CCC4C5)c3c2)cn1` (centres unmarked) [Compound 103], for which the IC50 on aromatase [1] (setting [3]) came out at 16.3 nM. Further, the “% recovery estradiol (plasma estradiol relative to the controls)” value with aromatase [2] (setting [4]) stood at 5%. As for `c1ccc2c(c1)CCCC2n1nnc2ccc(Cn3ccnc3)cc21` (centres unmarked) [Compound 105], the IC50 at aromatase [1] (setting [3]) worked out at 19.8 nM. The “% recovery estradiol (plasma estradiol relative to the controls)” value with aromatase [2] (setting [4]) came out at 14%. The like results for `CC(C)n1nnc2ccc(C(c3ccccc3)n3ccnc3)cc21.O=C(O)C(=O)O` (centres unmarked) [Compound 76, 6-[(1H-imidazol-1-yl)phenylmethyl]-1-(1-methylethyl)-1H-benzotriazole ethanedioate(1:1)] were, in that order, 34.7 nM and 9%.

`c1cncc(COn2nnc3ccc(Cn4ccnc4)cc32)c1` [Compound 196]: the IC50 on aromatase [1] (setting [3]) turned out to be 11 nM.

Turning to `Cn1nnc2ccc(C(c3cccc(F)c3)n3ccnc3)cc21` (centres unmarked) [Compound 33], the IC50 at aromatase [1] (setting [3]) turned out to be 24.6 nM. Also, the “% recovery estradiol (plasma estradiol relative to the controls)” value in the experiment on aromatase [2] (setting [4]) is on record as 5%. As to `CCCCCCCOn1nnc2ccc(Cn3ccnc3)cc21` [Compound 206], the IC50 at aromatase [1] (setting [3]) was 8 nM. Turning to `CCCOn1nnc2ccc(Cn3ccnc3)cc21` [Compound 227, 6-(1H-imidazol-1-ylmethyl)-1-propoxy-1H-benzotriazole monohydrochloride. hemihydrate], the IC50 on aromatase [1] (setting [3]) was found to be 7.4 nM. Further, the “% recovery estradiol (plasma estradiol relative to the controls)” value with aromatase [2] (setting [4]) was determined as 19%. As to `c1cn(Cc2ccc3nnn(C4CCCC4)c3c2)cn1` [Compound 107], the IC50 at aromatase [1] (setting [3]) is 14.1 nM. Moreover, the “% recovery estradiol (plasma estradiol relative to the controls)” value in the experiment with aromatase [2] (setting [4]) is recorded as 6%. The corresponding values for `Cn1nnc2ccc(C(c3cccc(Cl)c3)n3ccnc3)cc21` (centres unmarked) [Compound 28] are 25.3 nM and 6%. As for `Cc1cncn1C(c1ccccc1)c1ccc2nnn(OCc3ccccc3)c2c1` (centres unmarked) [Compound 213], on aromatase [1] (setting [3]), the IC50 was found to be 36.2 nM. Regarding `Cn1nnc2ccc(C(c3ccc(Br)cc3)n3ccnc3)cc21` (centres unmarked) [Compound 51], the IC50 on aromatase [1] (setting [3]) was 22.2 nM. Further, the “% recovery estradiol (plasma estradiol relative to the controls)” value in the experiment on aromatase [2] (setting [4]) is listed as 7%.

On to `C=CCn1nnc2ccc(Cn3ccnc3)cc21` [Compound 106], for which the IC50 on aromatase [1] (setting [3]) is 24.4 nM. Moreover, the “% recovery estradiol (plasma estradiol relative to the controls)” value in the experiment on aromatase [2] (setting [4]) was determined as 8%.

For `c1ccc(CCn2nnc3ccc(Cn4ccnc4)cc32)cc1` [Compound 92], the IC50 on aromatase [1] (setting [3]) worked out at 8.7 nM. In addition, the “% recovery estradiol (plasma estradiol relative to the controls)” value in the experiment on aromatase [2] (setting [4]) came out at 15%.

With `Fc1ccc(C(c2ccc3[nH]nnc3c2)n2ccnc2)cc1` (centres unmarked) [Compound 113], the IC50 on aromatase [1] (setting [3]) amounted to 18.8 nM. The “% recovery estradiol (plasma estradiol relative to the controls)” value with aromatase [2] (setting [4]) was 4%.

On to `Fc1cccc(Cn2nnc3ccc(Cn4ccnc4)cc32)c1` [Compound 99], for which, at aromatase [1] (setting [3]), the IC50 worked out at 17.8 nM. In addition, the “% recovery estradiol (plasma estradiol relative to the controls)” value in the experiment on aromatase [2] (setting [4]) came out at 11%.

For `c1ccc(CCOn2nnc3ccc(Cn4ccnc4)cc32)cc1` [Compound 208], the IC50 on aromatase [1] (setting [3]) is 11 nM. In the case of `c1csc(Cn2nnc3ccc(Cn4ccnc4)cc32)c1` [Compound 111], the IC50 at aromatase [1] (setting [3]) came to 14.3 nM. Moreover, the “% recovery estradiol (plasma estradiol relative to the controls)” value in the experiment on aromatase [2] (setting [4]) is reported as 19%.

Take `CCC(C)n1nnc2ccc(Cn3ccnc3)cc21` (centres unmarked) [Compound 101]: the IC50 at aromatase [1] (setting [3]) amounted to 17.4 nM. The “% recovery estradiol (plasma estradiol relative to the controls)” value with aromatase [2] (setting [4]) stood at 7%. With `CCOn1nnc2ccc(C(c3ccccc3)n3ccnc3)cc21` (centres unmarked) [Compound 4], the IC50 on aromatase [1] (setting [3]) amounted to 16 nM.

On to `CCn1nnc2ccc(Cn3ccnc3)cc21` [Compound 102], for which the IC50 at aromatase [1] (setting [3]) came out at 31.7 nM. For the same compound, the “% recovery estradiol (plasma estradiol relative to the controls)” value in the experiment on aromatase [2] (setting [4]) is 2%. In the case of `Cn1nnc2ccc(C(c3ccc(Cl)cc3)n3ccnc3)cc21` (centres unmarked) [Compound 30], on aromatase [1] (setting [3]), the IC50 stood at 22.2 nM. Also, in the experiment on aromatase [2] (setting [4]), the “% recovery estradiol (plasma estradiol relative to the controls)” value is given as 7%. The like results for `Cn1nnc2ccc(C(c3cccc(Br)c3)n3ccnc3)cc21` (centres unmarked) [Compound 50] were, in that order, 18.3 nM and 1%.

`COCCOn1nnc2ccc(Cn3ccnc3)cc21` [Compound 220, 6-(1H-imidazol-1-ylmethyl)-1-(2-methoxyethoxy)-1H-benzotriazole]: the IC50 on aromatase [1] (setting [3]) was found to be 20 nM. As to `Cn1nnc2ccc(C(c3ccccc3)n3ccnc3)cc21` (centres unmarked) [Compound 90], at aromatase [1] (setting [3]), the IC50 was 22.7 nM. Besides, the “% recovery estradiol (plasma estradiol relative to the controls)” value in the experiment with aromatase [2] (setting [4]) turned out to be 5%.

Take `Cn1nnc2ccc(C(c3ccsc3)n3ccnc3)cc21` (centres unmarked) [Compound 69, 6-[(1H-imidazol-1-yl) (3-thienyl)methyl]-1-methyl-1H-benzotriazole]: the IC50 at aromatase [1] (setting [3]) was 29 nM. Further, the “% recovery estradiol (plasma estradiol relative to the controls)” value with aromatase [2] (setting [4]) is 5%. Consider `CC(C)CCn1nnc2ccc(Cn3ccnc3)cc21` [Compound 93], for which, on aromatase [1] (setting [3]), the IC50 was determined as 10.5 nM. Besides, the “% recovery estradiol (plasma estradiol relative to the controls)” value with aromatase [2] (setting [4]) was determined as 8%. In the case of `c1ccc(COn2nnc3ccc(Cn4ccnc4)cc32)cc1` [Compound 228, 6-(1H-imidazol-1-ylmethyl)-1-(phenylmethoxy)-1H-benzotriazole], the IC50 on aromatase [1] (setting [3]) was 5.2 nM. With `Clc1ccc(C(c2ccc3nnn(-c4ccccc4)c3c2)n2ccnc2)cc1.O=[N+]([O-])O` (centres unmarked) [mononitrate], the IC50 on aromatase [1] is 17.6 nM. Take `CCCCOn1nnc2ccc(C(c3ccccc3)n3ccnc3)cc21` (centres unmarked) [Compound 6]: the IC50 at aromatase [1] (setting [3]) came out at 12 nM. The same measure, in the same setting: as for `c1ccc(-c2ccc(COn3nnc4ccc(Cn5ccnc5)cc43)cc2)cc1` [Compound 191], the figure is 23.4 nM. Take `Clc1ccc(C(c2ccc3nnn(-c4ccccc4)c3c2)n2ccnc2)cc1.O=[N+]([O-])O` (centres unmarked): the “% recovery estradiol (plasma estradiol relative to the controls)” value in the experiment with aromatase [2] (rat, in vivo) turned out to be 21%. With `CCCCCCCCCOn1nnc2ccc(Cn3ccnc3)cc21` [Compound 203], the IC50 at aromatase [1] (setting [3]) amounted to 17 nM. The same measure, in the same setting: as for `c1ccc(SCOn2nnc3ccc(Cn4ccnc4)cc32)cc1` [Compound 176], the figure is 12 nM; as for `COc1ccc(C(c2ccc3nnn(C)c3c2)n2ccnc2)cc1` (centres unmarked) [Compound 59], 18 nM. `CC(C)CCn1nnc2ccc(C(c3ccc(Cl)cc3)n3ccnc3)cc21` (centres unmarked) [Compound 120]: the IC50 on aromatase [1] (setting [3]) was 8.9 nM.
